The source of these data is US9078871B2, “Estrogen receptor modulators and uses thereof” (SERAGON PHARMACEUTICALS, INC., priority 2010, dated 2015).

One assay addresses T1, ER-α (Homo sapiens, UniProt P03372).
T1 construct: endogenous in cells; host or cells: MCF-7
T1 sequence (P03372 1-595): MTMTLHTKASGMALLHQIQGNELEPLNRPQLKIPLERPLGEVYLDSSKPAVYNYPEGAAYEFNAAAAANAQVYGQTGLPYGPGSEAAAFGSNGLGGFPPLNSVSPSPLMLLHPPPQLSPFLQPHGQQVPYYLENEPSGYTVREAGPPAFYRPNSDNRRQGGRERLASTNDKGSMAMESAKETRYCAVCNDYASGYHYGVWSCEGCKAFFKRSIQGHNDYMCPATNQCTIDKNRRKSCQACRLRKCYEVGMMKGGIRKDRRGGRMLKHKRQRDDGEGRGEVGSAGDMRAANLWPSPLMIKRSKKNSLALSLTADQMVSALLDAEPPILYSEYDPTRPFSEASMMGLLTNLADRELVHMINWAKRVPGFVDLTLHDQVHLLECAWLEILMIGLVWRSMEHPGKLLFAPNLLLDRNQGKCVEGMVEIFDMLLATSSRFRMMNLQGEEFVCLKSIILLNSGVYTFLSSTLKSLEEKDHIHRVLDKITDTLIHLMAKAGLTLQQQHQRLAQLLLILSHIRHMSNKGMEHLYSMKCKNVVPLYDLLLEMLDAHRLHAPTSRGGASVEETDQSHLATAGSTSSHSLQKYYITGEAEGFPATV
Nature of the assay: ER-α in Cell Western Assay (SP1). The class given is cell-based. Particulars: MCF-7 cells, SP1 rabbit monoclonal Ab, 4 or 24 hr post compound addition, read-out: ER In-Cell Western Assay (SP1); for Emax: MCF7, Max Response; for DC50: IC50. As for the experimental part:
MCF-7 cells were adjusted to a concentration of 200,000 cells per mL in RPMI containing 10% charcoal-stripped FBS and 20 mM HEPES. 16 microliters of the cell suspension (3200 cells) was added to each well of a poly-D-lysine 384 well plate, and the cells were incubated overnight to allow the cells to adhere. The following day an eleven point, serial semilog dilution of each compound was added to the cells in 16 μL at a final concentration ranging from 0.3-0.000003 μM. At 4 or 24 hr post compound addition, the cells were fixed (10% formalin in PBS) for 20 minutes. Cells were permeabalized in PBS 0.1% Triton and blocked with LICOR blocking buffer (50 μl/well, 90′). The wells were then incubated overnight at 4° C. with SP1 rabbit monoclonal Ab (Thermo Scientific) diluted 1:1000 in LICOR blocking buffer/0.1% Tween-20. Wells which were treated with blocking buffer with Tween but no antibody were used as a background control. Wells were washed with 0.1% Tween-20/PBS and then incubated in goat anti-rabbit IRDye™ 800CW (LICOR Inc.; 1:1000) and DRAQ5 DNA dye (1:2000 for 2 mM stock) diluted in LICOR blocking buffer containing 0.1% Tween-20 and 0.01% SDS for 60 minutes. Cells were washed (50 μl/well, 5′ each) in 0.1% Tween-20/PBS. Plates were scanned on a LICOR Odyssey infrared imaging system. Integrated intensities in the 800 nm channel and 700 nm channel were measured to determine levels of ER and DNA respectively. Percent ER levels were determined as follows: (Integrated intensity 800 nm sample/integrated intensity 700 nm sample)/(Integrated intensity 800 nm untreated cells/integrated intensity 700 nm untreated cells)×100=% ER levels.

The next assay concerns MCF-7 cells. As to the kind of experiment: Breast Cancer Cell Viability Assay (MCF7 Viability Assay). The class given is cell-based. Particulars: 5 days' compound exposure, CellTiter-Glo; for IC50: Homo sapiens, MCF7, 120 h. As for the experimental part:
MCF-7 cells were adjusted to a concentration of 20,000 cells per mL in RPMI containing 10% FBS and 20 mM HEPES. 16 microliters of the cell suspension (320 cells) was added to each well of a 384 well plate, and the cells were incubated overnight to allow the cells to adhere. The following day an eleven point, serial semilog dilution of each compound was added to the cells in 16 μL at a final concentration ranging from 0.3-0.000003 μM. After 5 days' compound exposure, 16 μL of CellTiter-GLo (Promega, Madison Wis.) was added to the cells the relative luminescence units (RLUs) of each well was determined. CellTiter-Glo added to 32 μL of medium without cells was used to obtain a background value. The Percent viability of each sample was determined as follows: (RLU sample-RLU background/RLU untreated cells-RLU background)×100=% viability.

Take `CC1=C(c2ccc(F)cc2)[C@H](c2ccc(OC[C@H](C)N3CC[C@@H](C)C3)cc2)Oc2ccc(O)cc21` (single isomer, unassigned) [Example 30a]: at ER-α, the Emax was 60 to 85% and the DC50 was no more than 1 nM. In addition, in the assay on MCF-7 cells, the “MCF7 Viability Assay Max Response” value is recorded as “++ (++ = a single % value ≧50%)” and the IC50 is no more than 1 nM.

Regarding `CC1=C(c2ccc(F)cc2)[C@@H](c2ccc(OC[C@H](C)N3CC[C@@H](C)C3)cc2)Oc2ccc(O)cc21` (single isomer, unassigned) [Example 30b], on ER-α, the Emax lay in the range of 60 to 85% and the DC50 is greater than 1 nM. Besides, in the assay with MCF-7 cells, the “MCF7 Viability Assay Max Response” value is given as “++ (++ = a single % value ≧50%)” and the 50% inhibitory concentration (IC50) was greater than 1 nM.

As to `CC1=C(c2cccc(O)c2C)C(c2ccc(OC[C@H](C)N3CC[C@@H](C)C3)cc2)Oc2ccc(O)cc21` (stereo partly drawn) [Example 40, 3-(3-Hydroxy-2-methylphenyl)-4-methyl-2-(4-((S)-2-((R)-3-methylpyrrolidin-1-yl)propoxy)phenyl)-2H-chromen-6-ol], on ER-α, the Emax is 60 to 85% and the DC50 is no more than 1 nM. Moreover, in the assay on MCF-7 cells, the “MCF7 Viability Assay Max Response” value is “++ (++ = a single % value ≧50%)” and the IC50 was no more than 1 nM.

For `CC1=C(c2ccc(O)cc2C)C(c2ccc(OC[C@H](C)N3CC[C@@H](C)C3)cc2)Oc2ccc(O)cc21` (stereo partly drawn) [Example 41, 3-(4-Hydroxy-2-methylphenyl)-4-methyl-2-(4-((S)-2-((R)-3-methylpyrrolidin-1-yl)propoxy)phenyl)-2H-chromen-6-ol], at ER-α, the Emax is 60 to 85% and the DC50 is no more than 1 nM. Besides, in the assay with MCF-7 cells, the “MCF7 Viability Assay Max Response” value was “++ (++ = a single % value ≧50%)” and the IC50 is no more than 1 nM.

As for `CC1=C(c2ccc(O)c(C)c2)C(c2ccc(OC[C@H](C)N3CC[C@@H](C)C3)cc2)Oc2ccc(O)cc21` (stereo partly drawn) [Example 42, 3-(4-Hydroxy-3-methylphenyl)-4-methyl-2-(4-((S)-2-((R)-3-methylpyrrolidin-1-yl)propoxy)phenyl)-2H-chromen-6-ol], on ER-α, the Emax is no less than 85% and the DC50 is no more than 1 nM. In the assay on MCF-7 cells, the “MCF7 Viability Assay Max Response” value is listed as “++ (++ = a single % value ≧50%)” and the IC50 is no more than 1 nM.

Turning to `CC1=C(c2cc(O)cc(F)c2)C(c2ccc(OC[C@H](C)N3CC[C@@H](C)C3)cc2)Oc2ccc(O)cc21` (stereo partly drawn) [Example 43, 3-(3-Fluoro-5-hydroxyphenyl)-4-methyl-2-(4-((S)-2-((R)-3-methylpyrrolidin-1-yl)propoxy)phenyl)-2H-chromen-6-ol], on ER-α, the Emax is no less than 85% and the DC50 was no more than 1 nM. In the assay on MCF-7 cells, the “MCF7 Viability Assay Max Response” value was “++ (++ = a single % value ≧50%)” and the IC50 is no more than 1 nM.

In the case of `CC1=C(c2ccc(Cl)cc2)C(c2ccc(OC[C@H](C)N3CC[C@@H](C)C3)cc2)Oc2ccc(O)cc21` (stereo partly drawn) [Example 44, 3-(4-Chlorophenyl)-4-methyl-2-(4-((S)-2-((R)-3-methylpyrrolidin-1-yl)propoxy)phenyl)-2H-chromen-6-ol], at ER-α, the Emax was 60 to 85% and the DC50 is greater than 1 nM. In addition, in the assay on MCF-7 cells, the “MCF7 Viability Assay Max Response” value was “++ (++ = a single % value ≧50%)” and the IC50 was greater than 1 nM.

`CC1=C(c2ccc(O)cc2F)C(c2ccc(OC[C@H](C)N3CC[C@@H](C)C3)cc2)Oc2ccc(O)cc21` (stereo partly drawn) [Example 45, 3-(2-Fluoro-4-hydroxyphenyl)-4-methyl-2-(4-((S)-2-((R)-3-methylpyrrolidin-1-yl)propoxy)phenyl)-2H-chromen-6-ol]: on ER-α, the Emax was no less than 85% and the DC50 was no more than 1 nM. Also, in the assay on MCF-7 cells, the “MCF7 Viability Assay Max Response” value was “++ (++ = a single % value ≧50%)” and the IC50 is no more than 1 nM.

For the compound `CC1=C(c2ccc(F)c(F)c2)C(c2ccc(OC[C@H](C)N3CC[C@@H](C)C3)cc2)Oc2ccc(O)cc21` (stereo partly drawn) [Example 46, 3-(3,4-Difluorophenyl)-4-methyl-2-(4-((S)-2-((R)-3-methylpyrrolidin-1-yl)propoxy)phenyl)-2H-chromen-6-ol], on ER-α, the Emax is 60 to 85% and the DC50 was greater than 1 nM. For the same compound, in the assay on MCF-7 cells, the “MCF7 Viability Assay Max Response” value is “++ (++ = a single % value ≧50%)” and the IC50 was greater than 1 nM.

Take `CC1=C(c2cc(F)c(O)c(F)c2)C(c2ccc(OC[C@H](C)N3CC[C@@H](C)C3)cc2)Oc2ccc(O)cc21` (stereo partly drawn) [Example 47, 3-(3,5-Difluoro-4-hydroxyphenyl)-4-methyl-2-(4-((S)-2-((R)-3-methylpyrrolidin-1-yl)propoxy)phenyl)-2H-chromen-6-ol]: on ER-α, the Emax was no less than 85% and the DC50 is no more than 1 nM. In the assay with MCF-7 cells, the “MCF7 Viability Assay Max Response” value is listed as “++ (++ = a single % value ≧50%)” and the 50% inhibitory concentration (IC50) is no more than 1 nM.

For `CC1=C(c2ccc(F)c(O)c2F)C(c2ccc(OC[C@H](C)N3CC[C@@H](C)C3)cc2)Oc2ccc(O)cc21` (stereo partly drawn) [Example 48, 3-(2,4-Difluoro-3-hydroxyphenyl)-4-methyl-2-(4-((S)-2-((R)-3-methylpyrrolidin-1-yl)propoxy)phenyl)-2H-chromen-6-ol], on ER-α, the Emax was no less than 85% and the DC50 was no more than 1 nM. Moreover, in the assay with MCF-7 cells, the “MCF7 Viability Assay Max Response” value was “++ (++ = a single % value ≧50%)” and the IC50 was greater than 1 nM.

As for `CC1=C(c2cc(O)c(F)c(F)c2)C(c2ccc(OC[C@H](C)N3CC[C@@H](C)C3)cc2)Oc2ccc(O)cc21` (stereo partly drawn) [Example 49, 3-(3,4-Difluoro-5-hydroxyphenyl)-4-methyl-2-(4-((S)-2-((R)-3-methylpyrrolidin-1-yl)propoxy)phenyl)-2H-chromen-6-ol], on ER-α, the Emax was no less than 85% and the DC50 was no more than 1 nM. In addition, in the assay on MCF-7 cells, the “MCF7 Viability Assay Max Response” value is reported as “++ (++ = a single % value ≧50%)” and the IC50 is no more than 1 nM.

For the compound `CC1=C(c2ccc(F)cc2Cl)C(c2ccc(OC[C@H](C)N3CC[C@@H](C)C3)cc2)Oc2ccc(O)cc21` (stereo partly drawn) [Example 50, 3-(2-Chloro-4-fluorophenyl)-4-methyl-2-(4-((S)-2-((R)-3-methylpyrrolidin-1-yl)propoxy)phenyl)-2H-chromen-6-ol], on ER-α, the Emax lay within 60 to 85% and the DC50 was no more than 1 nM. Besides, in the assay on MCF-7 cells, the “MCF7 Viability Assay Max Response” value is “++ (++ = a single % value ≧50%)” and the half-inhibitory concentration (IC50) is no more than 1 nM.

For the compound `CC1=C(c2cccc(O)c2)C(c2ccc(OC[C@H](C)n3cnc(C)c3)cc2)Oc2ccc(O)cc21` (stereo partly drawn) [Example 51, 3-(3-Hydroxyphenyl)-4-methyl-2-(4-((S)-2-(4-methyl-1H-imidazol-1-yl)propoxy)phenyl)-2H-chromen-6-ol], on ER-α, the Emax was 60 to 85% and the DC50 was no more than 1 nM. In addition, in the assay on MCF-7 cells, the “MCF7 Viability Assay Max Response” value is given as “++ (++ = a single % value ≧50%)” and the half-inhibitory concentration (IC50) is no more than 1 nM.

For the compound `CC1=C(c2ccc(F)cc2F)C(c2ccc(OC[C@H](C)N3CC[C@@H](C)C3)cc2)Oc2ccc(O)cc21` (stereo partly drawn) [Example 52, 3-(2,4-Difluorophenyl)-4-methyl-2-(4-((S)-2-((R)-3-methylpyrrolidin-1-yl)propoxy)phenyl)-2H-chromen-6-ol], at ER-α, the Emax lay in the range of 60 to 85% and the DC50 was no more than 1 nM. In the assay with MCF-7 cells, the “MCF7 Viability Assay Max Response” value is on record as “++ (++ = a single % value ≧50%)” and the IC50 was no more than 1 nM.
